In patent US20070015174A1, “High throughput formulation screening of drug candidates” (priority 2005, published 2007):
Converted amounts (≈) assume the structure as drawn. Read-outs that look alike come from different tables or passages of the source.

Tests used:
[1] = cited from earlier work
[2] = High throughput formulation screening: solubility of compound in 96 formulations (5 μL scale, image capture); assay type: physicochemical; settings: for solubility: thermodynamic from solid
Experimental: The solubility of the compound in the various excipients is then evaluated by comparing the captured images (e.g., first, second, third, and fourth images). […] All stock solutions were prepared with ultrapure ASTM Type I water and sterile-filtered using a 0.22 micron filter. The solutions were then attached to the MATRIX MAKER liquid-handling robot for sterile path, positive pressure dispensation into an SBS (Society for Biomolecular Screening) standard-sized 96 deep well plates. The screening formulations are defined in the CRYSTAL MINER software, which drives the MATRIX MAKER and allows for the rapid development of refinement screens for the optimization of lead hits. Once the formulations have been dispensed, the plate is sealed and centrifuged at 2000 rpm to ensure that each well contains a homogeneous solution. […] The DROP MAKER micro-scale liquid handler then dispenses 5 μL of the compound solution into a 96-well SBS format plate. […] Images were then captured of each well by the CRYSTAL MONITOR workstation (Session 1). Then 5 μL of each formulation screening solution were added to separate wells and images were captured for each well (Session 2) as above. Following image capture, the plate was heated to 45° C. for 30 minutes, then agitated for 10 minutes at room temperature during cool down. Additional images are captured on day one (t=1, Session 3) and day three (t=3, Session 4). Images and data annotation are exported to Excel for final report generation. The solubility of triclocarban in the formulations screening set (96 conditions) was obtained after the high throughput screening at target solubility of 10 mg/mL by the method described above: […]

solubility in formulation ([2]; 10 mg/mL, IV dosing solution PEG 300/polysorbate 80/EtOH/SGF (40/5/5/50)): nearly completely dissolved | solubility in formulation ([2]; 10 mg/mL, IV dosing solution PEG 300/polysorbate 80/SGF (45/5/50)): nearly completely dissolved | solubility in formulation ([2]; 10 mg/mL, NMP/polysorbate 80 (9/1)): easily dissolved | solubility in formulation ([2]; 10 mg/mL, PEG 300/polysorbate 80 (9/1)): easily dissolved | solubility in formulation ([2]; 10 mg/mL, PEG 400/polysorbate 80/EtOH (8/1/1)): easily dissolved | solubility in formulation ([2]; 10 mg/mL, PEG 400/polysorbate (3/1)): easily dissolved | solubility in formulation ([2]; 10 mg/mL, SEDDS carpryol 90/PEG 400/cremophor EL (4/3/3)): dissolved | solubility in formulation ([2]; 10 mg/mL, SEDDS labrafac CC/imwitor 988/cremophor (25/27/48)): dissolved | solubility in formulation ([2]; 10 mg/mL, SEDDS sesame oil/maisine 35-1/polysorbate 80 (25/27/48)): dissolved | solubility in formulation ([2]; 10 mg/mL, SEDDS soybean oil/maisine 35-1/polysorbate 80/EtOH (35/20/35/10)): dissolved | solubility in formulation ([2]; 10 mg/mL, cosolvent PEG 400/EtOH (7/3)): easily dissolved | solubility in formulation ([2]; 10 mg/mL, cosolvent PEG 400/EtOH/PG (4/1/5)): easily dissolved | solubility ([2]; Carpryol 90 (formulation screening solution), oil or lipid, target 10 mg/mL, Carpryol 90): ~10 mg/mL (≈ 31.7 mM) | solubility ([2]; Cremophor EL (formulation screening solution), aqueous with cosolvent or surfactant or cyclodextrin, target 10 mg/mL, Cremophor EL): ~10 mg/mL (≈ 31.7 mM) | solubility ([2]; Labrafil M 1944 CS (formulation screening solution), oil or lipid, target 10 mg/mL, Labrafil M 1944 CS): ~10 mg/mL (≈ 31.7 mM) | solubility ([2]; Labrasol (formulation screening solution), aqueous with cosolvent or surfactant or cyclodextrin, target 10 mg/mL, Labrasol): ~10 mg/mL (≈ 31.7 mM) | solubility ([2]; N-methyl-2-pyrrolidinone (formulation screening solution), organic solvent or mixture, target 10 mg/mL, N-methyl-2-pyrrolidinone): ~10 mg/mL (≈ 31.7 mM) | solubility ([2]; Softigen 767 (formulation screening solution), aqueous with cosolvent or surfactant or cyclodextrin, target 10 mg/mL, Softigen 767): ~10 mg/mL (≈ 31.7 mM) | solubility ([2]; lauroglycol FCC (formulation screening solution), oil or lipid, target 10 mg/mL, lauroglycol FCC): ~10 mg/mL (≈ 31.7 mM) | solubility ([2]; peppermint oil (formulation screening solution), oil or lipid, target 10 mg/mL, peppermint oil): ~10 mg/mL (≈ 31.7 mM) | solubility in formulation ([2]; target 10 mg/mL, 20% TPGS): partially dissolved | solubility in formulation ([2]; target 10 mg/mL, Capmul MCM C8): dissolve TCC completely | solubility in formulation ([2]; target 10 mg/mL, HPbCD): partially dissolved | solubility in formulation ([2]; target 10 mg/mL, Imwitor 988): dissolve TCC completely | solubility in formulation ([2]; target 10 mg/mL, PEG 300): dissolve TCC completely | solubility in formulation ([2]; target 10 mg/mL, PEG 400): dissolve TCC completely | solubility in formulation ([2]; target 10 mg/mL, Polysorbate 80): dissolve TCC completely | solubility in formulation ([2]; target 10 mg/mL, RMbCD): partially dissolved | solubility in formulation ([2]; target 10 mg/mL, adjustment of pH to between 2 and 10): no effect | solubility in formulation ([2]; target 10 mg/mL, corn oil): partially dissolved | solubility in formulation ([2]; target 10 mg/mL, dimethylacetamide): dissolve TCC completely | solubility in formulation ([2]; target 10 mg/mL, imwitor 380): partially dissolved | solubility in formulation ([2]; target 10 mg/mL, labrafac CC): partially dissolved | solubility in formulation ([2]; target 10 mg/mL, maisine 35-1): partially dissolved | solubility in formulation ([2]; target 10 mg/mL, neobee M-5): partially dissolved | solubility in formulation ([2]; target 10 mg/mL, oleic acid): partially dissolved | solubility in formulation ([2]; target 10 mg/mL, soybean oil): partially dissolved
SMILES: O=C(Nc1ccc(Cl)cc1)Nc1ccc(Cl)c(Cl)c1 [TCC, 3,4,4′-trichlorocarbanilide]
solubility ([1]; 20% RMbCD with additives): about 5 mg/mL | solubility in organic solvents ([1]; acetone): soluble | solubility in organic solvents ([1]; propylene glycol): to some extent | intrinsic solubility (S0) ([1]; pure water, room temperature): less than 50 ng/ml | solubility in water ([1]; water): water-insoluble | solubility in formulation ([2]; target 10 mg/mL, 20% povidone): neither glycerine, safflower oil, sesame oil, nor 20% povidone had any effect | solubility in formulation ([2]; target 10 mg/mL, glycerine): neither glycerine, safflower oil, sesame oil, nor 20% povidone had any effect | solubility in formulation ([2]; target 10 mg/mL, safflower oil): neither glycerine, safflower oil, sesame oil, nor 20% povidone had any effect | solubility in formulation ([2]; target 10 mg/mL, sesame oil): neither glycerine, safflower oil, sesame oil, nor 20% povidone had any effect
